Here are results for 14 compounds from ChEMBL document CHEMBL3407332, “An efficient synthesis of new caffeine-based chalcones, pyrazolines and pyrazolo[3,4-b][1,4]diazepines as potential antimalarial, antitrypanosomal and antileishmanial agents” (Eur J Med Chem, 2015).

Data set [1] is described as follows: Hemolytic activity in human RBC after 48 hrs by spectrophotometric analysis. It counts as ADME, cell-based, Erythrocyte. Conditions: human red blood cells (RBC), read-out: LC50.
Data set [2] has as its system Plasmodium falciparum. Description: Antimalarial activity against asynchronic culture of Plasmodium falciparum NF54 assessed as parasite growth inhibition after 48 hrs by ethidium bromide staining-based spectrofluorometric analysis. It counts as functional, organism-based. The conditions noted are these: NF54, 48 h.
Data set [3] concerns Plasmodium falciparum. Description: Antimalarial activity against asynchronic culture of Plasmodium falciparum NF54 assessed as parasite growth inhibition at 20 ug/mL after 48 hrs by ethidium bromide staining-based spectrofluorometric analysis relative to control. It counts as functional. Conditions: NF54, 48 h, read-out: GI.
Data set [4] in a line: Cytotoxicity against human U937 cells assessed as cell viability after 72 hrs by MTT assay. It counts as cell-based, U-937. Conditions: read-out: LC50. For orientation: Tetrazolium assays rely on reduction of a dye to a coloured formazan, in cell work by metabolically active cells.
The subject of data set [5] is Leishmania panamensis. Briefly: Antileishmanial activity against amastigote stage of Leishmania panamensis MHOM/CO/87/UA140-EpiR-GFP infected in human U937 cells assessed as parasite growth inhibition at 20 ug/mL after 72 hrs by flow cytometric analysis relative to control. It is filed as functional. Conditions: MHOM/CO/87/UA140, U-937, 72 h, read-out: GI. On the technique in general: Flow cytometry measures light scatter and fluorescence of single cells or particles in a stream.

The subject of another data set is Trypanosoma cruzi. Description: Antitrypanosomal activity against amastigote stage of Trypanosoma cruzi Tulahuen infected in human U937 cells assessed as parasite growth inhibition at 20 ug/mL after 72 hrs by beta-galactosidase reporter gene assay relative to control. It counts as functional. The conditions noted are these: U-937, 72 h, read-out: GI.
Data set [6] deals with Leishmania panamensis. Briefly: Antileishmanial activity against amastigote stage of Leishmania panamensis MHOM/CO/87/UA140-EpiR-GFP infected in human U937 cells assessed as parasite growth inhibition after 72 hrs by flow cytometric analysis. It is filed as functional, organism-based. The conditions noted are these: MHOM/CO/87/UA140, U-937, 72 h.

Each structure is given as a SMILES string. Values after ≈ are worked out from the molar mass of the structure shown. Where only a bound is given, the exact number is not on record here.

Usually IC50 stands for the concentration that inhibits the measured activity by half. Regarding `COc1cc(C2CC(c3ccc(Cl)cc3)=Nc3c(C)nn(-c4ccccc4)c3N2)ccc1Oc1nc2c(c(=O)n(C)c(=O)n2C)n1C` (stereo not drawn), the HC50 at 48 h in data set [1] is over 200 µg/mL. Moreover, the IC50 in the data set with Plasmodium falciparum [2] was 14.1 mg/L (≈ 21.7 µM). The results for the inhibition of growth at 20 µg/mL in the data set with Plasmodium falciparum [3], in the data set on Leishmania panamensis [5] and in the data set on Trypanosoma cruzi were 80.3%, 0% and 0%, respectively. Moreover, the CC50 at 72 h in data set [4] was over 200 mg/L.
For the compound `COc1cc(C2CC(c3ccccc3)=NN2C=O)ccc1Oc1nc2c(c(=O)n(C)c(=O)n2C)n1C` (stereo not drawn), the inhibition of growth at 20 µg/mL in the data set with Plasmodium falciparum [3] was determined as 30.8%; with Leishmania panamensis [5], 53.1%; with Trypanosoma cruzi, 0%. Moreover, the CC50 at 72 h in data set [4] was over 200 mg/L.
In the case of `COc1ccc(C2=NNC(c3ccc(Oc4nc5c(c(=O)n(C)c(=O)n5C)n4C)c(OC)c3)C2)cc1` (stereo not drawn), the inhibition of growth at 20 µg/mL in the data set on Plasmodium falciparum [3] was found to be 13.1%; with Leishmania panamensis [5], 0%; in the data set on Trypanosoma cruzi it was 25.9%. In data set [4], the CC50 at 72 h is over 200 mg/L.
Consider `COc1cc(C2CC(c3ccc(C)cc3)=Nc3c(C)nn(-c4ccccc4)c3N2)ccc1Oc1nc2c(c(=O)n(C)c(=O)n2C)n1C` (stereo not drawn), for which the HC50 at 48 h in data set [1] is over 200 µg/mL. The 50% inhibitory concentration (IC50) in the data set on Plasmodium falciparum [2] amounted to 12.3 mg/L (≈ 19.5 µM). For the same compound, the inhibition of growth at 20 µg/mL is 93.5% with Plasmodium falciparum [3], 0% in the data set on Leishmania panamensis [5] and 37.7% in the data set with Trypanosoma cruzi. The CC50 at 72 h in data set [4] was over 200 mg/L.
`COc1cc(C2CC(c3cc(OC)c(OC)c(OC)c3)=NN2C=O)ccc1Oc1nc2c(c(=O)n(C)c(=O)n2C)n1C` (stereo not drawn): the inhibition of growth at 20 µg/mL in the data set with Plasmodium falciparum [3] came out at 29.5%; with Leishmania panamensis [5] it was 30.1%; in the data set on Trypanosoma cruzi, 9.9%. The CC50 at 72 h in data set [4] is over 200 mg/L.
For orientation: EC50 means the midpoint of the concentration-response curve. With `COc1cc(C2CC(c3cc(OC)c(OC)c(OC)c3)=NN2C(C)=O)ccc1Oc1nc2c(c(=O)n(C)c(=O)n2C)n1C` (stereo not drawn), the inhibition of growth at 20 µg/mL in the data set with Plasmodium falciparum [3] came to 46.3%; in the data set with Leishmania panamensis [5], 87.6%; in the data set with Trypanosoma cruzi it was 15.8%. Also, the CC50 at 72 h in data set [4] is over 200 mg/L. Besides, the EC50 with Leishmania panamensis [6] came out at 12.6 mg/L (≈ 21.3 µM).
Take `COc1cc(C2CC(c3ccc(Br)cc3)=NN2C=O)ccc1Oc1nc2c(c(=O)n(C)c(=O)n2C)n1C` (stereo not drawn): the inhibition of growth at 20 µg/mL with Plasmodium falciparum [3] worked out at 46.9%; in the data set on Leishmania panamensis [5] it was 70.4%; with Trypanosoma cruzi, 36.9%. The CC50 at 72 h in data set [4] was over 200 mg/L. In the data set with Leishmania panamensis [6], the EC50 is 16.1 mg/L (≈ 28.4 µM).
For `COc1cc(/C=C/C(=O)c2ccc(Cl)cc2)ccc1Oc1nc2c(c(=O)n(C)c(=O)n2C)n1C`, the results for the inhibition of growth at 20 µg/mL with Plasmodium falciparum [3], with Leishmania panamensis [5] and with Trypanosoma cruzi were 18.4%, 88.3% and 29.5%, respectively. Also, the CC50 at 72 h in data set [4] amounted to 102 mg/L (≈ 212 µM). Further, the EC50 in the data set with Leishmania panamensis [6] came out at 12.9 mg/L (≈ 26.8 µM).
As for `COc1cc(C2CC(c3ccc(Cl)cc3)=NN2C(C)=O)ccc1Oc1nc2c(c(=O)n(C)c(=O)n2C)n1C` (stereo not drawn), the inhibition of growth at 20 µg/mL in the data set on Plasmodium falciparum [3] came out at 22.1%; with Leishmania panamensis [5] it was 39.1%; in the data set on Trypanosoma cruzi, 9.8%. Besides, the CC50 at 72 h in data set [4] was over 200 mg/L.
Consider `COc1cc(C2CC(c3ccc(C)cc3)=NN2C(C)=O)ccc1Oc1nc2c(c(=O)n(C)c(=O)n2C)n1C` (stereo not drawn), for which the values for the inhibition of growth at 20 µg/mL in the data set on Plasmodium falciparum [3], in the data set on Leishmania panamensis [5] and with Trypanosoma cruzi were 35.6%, 63.7% and 30.6%, respectively. Besides, the CC50 at 72 h in data set [4] is over 200 mg/L. Also, the EC50 in the data set on Leishmania panamensis [6] stood at 18.1 mg/L (≈ 35 µM).
For the compound `COc1ccc(C2=Nc3c(C)nn(-c4ccccc4)c3NC(c3ccc(Oc4nc5c(c(=O)n(C)c(=O)n5C)n4C)c(OC)c3)C2)cc1` (stereo not drawn), the HC50 at 48 h in data set [1] was over 200 µg/mL. Further, in the data set with Plasmodium falciparum [2], the IC50 was 13.1 mg/L (≈ 20.3 µM). The values for the inhibition of growth at 20 µg/mL with Plasmodium falciparum [3], with Leishmania panamensis [5] and in the data set with Trypanosoma cruzi were 84.4%, 0% and 26.9%, respectively. Further, the CC50 at 72 h in data set [4] is over 200 mg/L.
`COc1ccc(C(=O)/C=C/c2ccc(Oc3nc4c(c(=O)n(C)c(=O)n4C)n3C)c(OC)c2)cc1`: the inhibition of growth at 20 µg/mL turned out to be 0% in the data set with Plasmodium falciparum [3], 82.6% with Leishmania panamensis [5] and 27.5% with Trypanosoma cruzi. Moreover, the CC50 at 72 h in data set [4] is over 200 mg/L. Further, the EC50 in the data set with Leishmania panamensis [6] was 14.2 mg/L (≈ 29.8 µM).
Consider `COc1cc(/C=C/C(=O)c2ccccc2)ccc1Oc1nc2c(c(=O)n(C)c(=O)n2C)n1C`, for which the results for the inhibition of growth at 20 µg/mL with Plasmodium falciparum [3], with Leishmania panamensis [5] and with Trypanosoma cruzi were 27.5%, 40.4% and 0%, respectively. The CC50 at 72 h in data set [4] stood at 131 mg/L (≈ 293 µM).
With `COc1cc(C2CC(c3cc(OC)c(OC)c(OC)c3)=NN2)ccc1Oc1nc2c(c(=O)n(C)c(=O)n2C)n1C` (stereo not drawn), the inhibition of growth at 20 µg/mL in the data set with Plasmodium falciparum [3] is 30.7%; in the data set on Leishmania panamensis [5] it was 73%; in the data set on Trypanosoma cruzi, 0%. Further, the CC50 at 72 h in data set [4] is over 200 mg/L. In addition, in the data set on Leishmania panamensis [6], the EC50 was 15.8 mg/L (≈ 28.7 µM).
